Test results as given in paper PMC4388716, “An Exploratory Study on ^99mTc-RGD-BBN Peptide Scintimammography in the Assessment of Breast Malignant Lesions Compared to ^99mTc-3P4-RGD2” (PLoS ONE, 2015).

How the values were obtained:
[1] = cited from earlier work; for Effective radiation dose of conventional nuclear medical imaging agent examination: in vivo
Excerpt: The effective radiation dose to the body of ^99mTc-3P4-RGD2 and ^99mTc-RGD-BBN were 1.15 ± 0.13 mSv and 0.65 ± 0.07 mSv respectively ^9. According to the 2007 Recommendations of the International Commission on Radiological Protection (ICRP), radiation equivalent dose which occupational workers’ vital organs were exposed to should be less than 500mSv and radiosensitive organs should be less than 150mSv. In our study, the mean absorbed dose equivalent for the whole body was 2.02E-03 mSv / MBq in healthy males and 2.31E-03 mSv / MBq in healthy females. Compared with other clinical mar ...

breast malignant lesions = experiment: SPECT/CT scintimammography of patients with breast malignant tumors; format: in vivo, human; design: key to Visual uptake grading: grade 1 = no abnormal increased uptake; grade 2 = mildly increased or heterogeneous uptake; grade 3 = definite focal increased uptake; conditions: for Visual uptake grading: SPECT/CT 1 h p.i., 3 readers
Excerpt: All patients were sent to the ^99mTc-3P4-RGD2 and ^99mTc-RGD-BBN SMM on an individual basis. The time interval between two imaging procedures was 48–54 hr. Finally, ^99mTc-RGD-BBN and ^99mTc-3P4-RGD2 SMM results were compared with each other. To be included, a patient had to be without any other history of breast disease. Exclusion criteria included pregnancy, lactation and a body weight greater than 80 kg.
The 3P4-RGD2 and RGD-BBN were generously provided by the Medical Isotopes Research Center of Peking University in freeze-dried kits form. Na^99mTcO4 was obtained from a commercial ^99Mo/^99mTc generator (Beijing Atom High Tech Co., Ltd.). The kit for preparation of ^99mTc-3P4-RGD2 was formulated by containing, per millilitre, 20 μg of HYNIC-3P4-RGD2, 5 mg of TPPTS, 6.5 mg of tricine, 40 mg of mannitol, 38.5 mg of disodium succinate hexahydrate and 12.7 mg of succinic acid. Radiolabeling and quality control procedures for ^99mTc-3P4-RGD2 were performed as described previously ^4. The kit for preparation of ^99mTc-RGD-BBN was formulated by containing, per millilitre, 20 μg of HYNIC-RGD-BBN, 6 mg of TPPTS, 10 mg of tricine, 40 mg of mannitol, 38.5 mg of disodium succinate hexahydrate and 12.7 mg of succinic acid. Then 1 mL of Na^99mTcO4 solution in saline was added to each kit vial followed by 30 min incubation at 100°C. The quality control was conducted by radioactive thin layer chromatography (ITLC), counting the high labeling yield of about 95%. Both ^99mTc-3P4-RGD2 and ^99mTc-RGD-BBN with a mean radioactivity of 299 ± 30 MBq and 293 ± 32 MBq were administered via single intravenous bolus injection followed by a 10 mL saline flush. ^99mTc-3P4-RGD2 and ^99mTc-RGD-BBN was performed with SPECT/CT at 1 h after intravenous injection of radiotracers respectively on separate days.
SPECT: Emission images were acquired using a dual-head, large field-of-view scintillation camera (Precedence, Philips Healthcare), equipped with a low-energy, high-resolution and parallel-hole collimator. In all healthy volunteers, planar images in both anterior and posterior views were acquired at 10 min, 30 min, 1 h, 2 h, 4 h, 8 h and 24 h post-injection and were stored digitally, using ^99mTc with a 20% energy window centered on 140 keV and 128×128 matrix. The velocity of scanning was 15 cm/min. SPECT images in all the patients were acquired over 360° (180°per head) in supine position with raised arms during the imaging. Imaging with both radiotracers was performed using 6°angular steps in a 20 s time frame, with a 64×64 matrix size. Distance between the breast and detector was minimized. The position of the patient was recorded in detail and kept consistent to the greatest extent in the second SPECT scan to make sure that the two different SPECT images could be fused to the CT images.
CT images from neck to abdomen were acquired sequentially in a non-dedicated 3rd-generation scanner installed in the SPECT camera gantry, with a 10 mm slice thickness, a maximum current of 2.5 mA and a 140 kV potential. The patients just had one CT scan since ^99mTc-3P4-RGD2 and ^99mTc-RGD-BBN SPECT were undertaken on the same device.
All images were interpreted qualitatively by three experienced nuclear medicine radiologists who were unaware of the clinical history and other test results of all patients. Visual analysis was performed on a per-lesion basis and in a blinded fashion. A 3-point scale system was adopted to describe the uptake degree for breast lesions. […] Homogeneous uptake in both breasts was classified as grade 1. SMM was considered positive for malignancy if the visual score was ≥2. There was no disagreement between three radiologists in our study.

| Molecule | Effective radiation dose of conventional nuclear medical imaging agent examination [1] | Effective radiation dose to the body ([1]; per examination (299 ± 30 MBq 99mTc-3P4-RGD2, 293 ± 32 MBq 99mTc-RGD-BBN i.v.)) | Visual uptake grading (breast malignant lesions; Patient 1: DCIS, R, 2.3 cm, αvβ3 -, GRPR +) | Visual uptake grading (breast malignant lesions; Patient 2: DCIS, L, 2.0 cm, αvβ3 +, GRPR +) | Visual uptake grading (breast malignant lesions; Patient 3: IDC, L, 5.1 cm, αvβ3 +, GRPR +) | Visual uptake grading (breast malignant lesions; Patient 4: IDC, R, 2.1 cm, αvβ3 +, GRPR -) | Visual uptake grading (breast malignant lesions; Patient 5: IDC, L, 5.8 cm, αvβ3 +, GRPR +) | Visual uptake grading (breast malignant lesions; Patient 6: IDC, L, 6.3 cm, αvβ3 +, GRPR +) | Malignant lesions detected by SPECT/CT (of 6 malignant lesions in 6 patients) (breast malignant lesions; SPECT/CT 1 h after i.v. injection, 4 IDC, 2 DCIS) |
| --- | --- | --- | --- | --- | --- | --- | --- | --- | --- |
| O.O.O=P([O-])([O-])CP(=O)([O-])[O-].[99Tc+4] [99mTc—MDP] | 5.92 mSv |  |  |  |  |  |  |  |  |
| [99Tc].[C-]#[N+]CC(C)(C)OC.[C-]#[N+]CC(C)(C)OC.[C-]#[N+]CC(C)(C)OC.[C-]#[N+]CC(C)(C)OC.[C-]#[N+]CC(C)(C)OC.[C-]#[N+]CC(C)(C)OC [99mTc—MIBI] | 7.05 mSv |  |  |  |  |  |  |  |  |
| [^99mTc (HYNIC-3PRGD2) (tricine) (TPPTS)] [99mTc-3P4-RGD2] |  | 1.15 ± 0.13 mSv | 1 | 3 | 3 | 3 | 3 | 3 | five lesions with clear uptake and the other one with barely uptake |
